Test system: chorioallantoic membrane of the preincubated Leghorn hen's egg
Test: HET-CAM (Hen's Egg Test ChorioAllantoic Membrane) test of ocular irritation potential
Conditions: for Classification of the concentrate tested: HET-CAM, active material concentration of 1%, pH 7, class by scale of the index I
Source text: The experimental protocol of this test is adapted from the Luepke publication (The Hen's Egg Test: “An Alternative Toxicity Test”, Brit. J. Dermato., 1986, 115. Suppl. 31, 133-135, Luepke N. P. & Kemper F. H. The HET-CAM Test: “An Alternative to the Draize Test”, Food Chem. Toxicol., 1986, 24, No. 6/7, 495-496), from the INVITTOX No. 47 protocol (1992, INVITTOX data bank, 34 Stoney Street, Nottingham, NG1 1NB, UK) and from Annex IV to the order published in the Official Journal of the French Republic of 26 Dec. 1996 relating to the official methods for the analysis of beauty products (NOR: FCEC9600217A).
This tests consists in assessing the irritation potential of a substance by reading the modifications observed after application of a solution of this substance to the richly vascularized chorioallantoic membrane of the preincubated Leghorn hen's egg.
The products were tested at an active material concentration of 1%. The solutions are prepared by diluting in deionized water at most 24 hours in advance.
The pH of the test solutions is adjusted to 7 with triethanolamine or lactic acid, if necessary.
On reception, the fertilized eggs are preincubated in an incubator for 10 days at 37.8° C.±0.5° C. with a degree of humidity in the incubator of 50% to 60%.
The shell of the eggs on which the tests are carried out is cut out around the air pocket and the chorioallantoic membrane is uncovered by carefully removing the shell membrane using tweezers.
0.3 cm^3 of the solution to be tested is deposited at the surface of the membrane. […]
By definition, if one of the phenomena has not appeared during these five minutes (300 seconds), it is recorded ti=301 seconds.
Each solution is tested on 4 to 6 eggs according to the repeatability of the reactions observed. The Het-Cam index I, representative of the test, is calculated for each egg tested in the following way: I=5×(301−t1)/300+7×(301−t2)/300+9×(301−t3)/300
The mean of the individual indices is subsequently calculated, along with the statistical uncertainty i: i=t·S/√n for a risk of 5% […]

Question: For “Sodium lauryl ether (2.2 EO) sulfate [compound 1]”, which “Classification of the concentrate tested” value is on record?
Answer: Its value is “Irritating (9 ≦ . . . I < 12)”.

Question: What about the “Classification of the concentrate tested” value (listed as comparative example 1) of the same substance?
Answer: The value was “irritating”.

Question: What about the Het-Cam index (active material concentration of 1% in deionized water, pH adjusted to 7, 0.3 cm^3 on membrane, rinsed after 20 seconds, read over 5 minutes, mean of 4 to 6 eggs) of the same substance?
Answer: Its Het-Cam index is 10.7.

— patent US7902135B2, “Method of improving the ocular tolerance of foaming and/or detergent compositions for skin use” (Societe d'Exploitation de Produits pour les Industries …, priority 2006, dated 2011)
